pIC50: −log10 of the molar value.
Assays:
[1] = test system: SV40 large T-antigen in COS-1 cells; assay: Expression from SV40 promoter incorporated in the cellular genome (COS-1 cells); format: cell-based; details: COS-1 cells (FIG. 10)
Protocol: Cell were detached with rubber policeman and washed three times with ice-cold PBS and lysed in buffer (50 mM Tris, pH 7.4, 250 mM NaCl, 5 mM EDTA, 50 mM NaF, 1 mM Na3VO4, 1% Nonidet P40) containing mixture of protease and phosphatase inhibitors (Sigma-Aldrich St Louis, Mo., USA). 20 μg of total proteins were separated by SDS-polyacrylamide gel electrophoresis (SDS-PAGE) on 8% or 10% gels and transferred onto nitrocellulose membranes. Membranes were blocked in 5% milk and 0.1% Tween 20 in PBS and probed overnight with specific monoclonal antibodies or rabbit polyclonal sera. Primary antibodies specific for RNA polymerase II (all from Santa Cruz Biotechnology, California, USA) included: (i) N-20 used at […] (ii) H14, specific for form phosphorylated at phosphoserine 5, used at 6 μg/ml and (iii) H5, specific for form phosphorylated at phosphoserine 2 used at 4 μg/ml. Additional primary mAb used in immunblots included (iv) anti-p53 (D0-1, in house, […]) used at 1 μg/ml, (v) anti-p21^WAF1 (118, in house), used at 1 μg/ml), (vi) anti-actin (A-2066, Sigma-Aldrich St Louis, Mo., USA) used at 1 μg/ml, (vii) anti-T-antigen (419, in house, Lane), used at 1 μg/ml. All primary antibodies were diluted in PBS containing 5% powdered milk; 0.1% Tween 20. […]

[2] = test system: C-terminal domain (CTD) of RNA polymerase II, serine 2 and serine 5; assay: Immunoblotting: phosphorylation of the C-terminal domain of RNA polymerase II; format: cell-based
Protocol: Cell were detached with rubber policeman and washed three times with ice-cold PBS and lysed in buffer (50 mM Tris, pH 7.4, 250 mM NaCl, 5 mM EDTA, 50 mM NaF, 1 mM Na3VO4, 1% Nonidet P40) containing mixture of protease and phosphatase inhibitors (Sigma-Aldrich St Louis, Mo., USA). 20 μg of total proteins were separated by SDS-polyacrylamide gel electrophoresis (SDS-PAGE) on 8% or 10% gels and transferred onto nitrocellulose membranes. Membranes were blocked in 5% milk and 0.1% Tween 20 in PBS and probed overnight with specific monoclonal antibodies or rabbit polyclonal sera. Primary antibodies specific for RNA polymerase II (all from Santa Cruz Biotechnology, California, USA) included: (i) N-20 used at 1 μg/ml, (ii) H14, specific for form phosphorylated at phosphoserine 5, used at 6 μg/ml and (iii) H5, specific for form phosphorylated at phosphoserine 2 used at 4 μg/ml. Additional primary mAb used in immunblots included (iv) anti-p53 (DO-1, in house) used at 1 μg/ml, (v) anti-p21^WAF1 (118, in house), used at 1 μg/ml), (vi) anti-actin (A-2066, Sigma-Aldrich St Louis, Mo., USA) used at 1 μg/ml, (vii) anti-T-antigen (419, in house), used at 1 μg/ml. All primary antibodies were diluted in PBS containing 5% powdered milk; 0.1% Tween 20. Peroxidase conjugated rabbit anti-mouse immunoglobulin or porcine anti-rabbit immunoglobulin antisera (DAKO, Glostrup, Denmark) were used as the secondary antibodies and visualised with ECL reagents (Amersham-Pharmacia, Little Chalfont, UK).
Modulation of expression from the HIV promoter by CDKI treatment may be mediated by transcriptional regulation. At the C-terminus of the largest subunit of RNA Pol II is an important regulatory domain referred to as CTD (C-terminal domain). We therefore investigated the effect of CDKIs on CTD serine 2 and serine 5 phosphorylation. […] Although the functions of CDKs and RNA polymerase II were suppressed, the expression from incorporated viral promoters was enhanced.
Cell were detached with rubber policeman and washed three times with ice-cold PBS and lysed in buffer (50 mM Tris, pH 7.4, 250 mM NaCl, 5 mM EDTA, 50 mM NaF, 1 mM Na3VO4, 1% Nonidet P40) containing mixture of protease and phosphatase inhibitors (Sigma-Aldrich St Louis, Mo., USA). 20 μg of total proteins were separated by SDS-polyacrylamide gel electrophoresis (SDS-PAGE) on 8% or 10% gels and transferred onto nitrocellulose membranes. Membranes were blocked in 5% milk and 0.1% Tween 20 in PBS and probed overnight with specific monoclonal antibodies or rabbit polyclonal sera. […]

[3] = test system: p53-responsive reporter pRGCΔfoslacZ in human melanoma cell line Arn8; assay: p53-dependent transcriptional activity, β-galactosidase reporter in Arn8 cells
[4] = test system: P388D1 leukemia transplanted intraperitoneally; assay: In vivo anticancer activity, survival model of P388D1 leukemia; details: DBA-2 mice, orally twice daily 250 mg/kg, Days 1-3 and 7-9
Protocol: DBA-2 mice were used as a host. One day following the leukemia transplantation, treatment with 105 was initiated. […] Survival analysis of treated animals (10 mice/group) was preformed in comparison with vehicle treated mice using Kaplan-Meier method and the significance was evaluated by the log-rank test. Body weight of experimental animals was evaluated in parallel in order to reflect toxicity and efficacy of therapy. Comparative analysis of body weight was performed using […].

[5] = test system: pRb (Ser780, Ser807, Thr821) in MCF7 cells; assay: Immunoblot analysis of pRb phosphorylation in MCF7 cells; format: cell-based, human; details: MCF7 cells treated for 24 h, immunoblot (FIG. 2)
Protocol: Cell were detached with rubber policeman and washed three times with ice-cold PBS and lysed in buffer (50 mM Tris, pH 7.4, 250 mM NaCl, 5 mM EDTA, 50 mM NaF, 1 mM Na3VO4, 1% Nonidet P40) containing mixture of protease and phosphatase inhibitors (Sigma-Aldrich St Louis, Mo., USA). 20 μg of total proteins were separated by SDS-polyacrylamide gel electrophoresis (SDS-PAGE) on 8% or 10% gels and transferred onto nitrocellulose membranes. Membranes were blocked in 5% milk and 0.1% Tween 20 in PBS and probed overnight with specific monoclonal antibodies or rabbit polyclonal sera. Primary antibodies specific for RNA polymerase II (all from Santa Cruz Biotechnology, California, USA) included: (i) N-20 used at 1 μg/ml, (ii) H14, specific for form phosphorylated at phosphoserine 5, used at 6 μg/ml and (iii) H5, specific for form phosphorylated at phosphoserine 2 used at 4 μg/ml. Additional primary mAb used in immunblots included (iv) anti-p53 (DO-1, in house) used at 1 μg/ml, (v) anti-p21^WAF1 (118, in house), used at 1 μg/ml), (vi) anti-actin (A-2066, Sigma-Aldrich St Louis, Mo., USA) used at 1 μg/ml, (vii) anti-T-antigen (419, in house), used at 1 μg/ml. All primary antibodies were diluted in PBS containing 5% powdered milk; 0.1% Tween 20. […]

[6] = test system: cervical carcinoma cells HELA; assay: In vitro cytotoxic activity (Calcein AM, 72 hours), HELA; details: Homo sapiens, read-out: Cytotoxicity IC50 HeLa
[7] = test system: HSV-1; assay: Plaque number reduction assay, HSV-1 on HFFF; format: cell-based, Herpes simplex virus type 1 strain 17
[8] = test system: human osteogenic sarcoma HOS; assay: In vitro cytotoxic activity (Calcein AM, 72 hours), HOS; details: read-out: Cytotoxicity IC50 HOS

SMILES: CCC(CO)Nc1nc(NCc2ccccc2N)c2ncn(C(C)C)c2n1 (centres unmarked) [Compound 105, 2-({6-[(2-aminobenzyl)amino]-9-isopropyl-9H-purin-2-yl}amino)butan-1-ol]
- large T-antigen expression [1]: stimulated large T-antigen expression
- phosphorylation of both serine 2 and serine 5 of RNA polymerase II CTD ([2]; 12 hours treatment, cell lines with incorporated SV40, all tested cell lines (FIG. 12A)): inhibited
- levels of serine 2 and serine 5 phosphorylation of RNA polymerase II CTD ([2]; COS-1, CV-1 and MCF-7 cells): substantially reduced
- phosphorylation of CTD of RNA polymerase II ([2]; MCF7 cells treated for 24 h, immunoblot (FIG. 2)): reduced phosphorylation
- blue-coloured cells (β-galactosidase activity, X-gal substrate) ([3]; Arn8 cells, 5 μM): about 25%
- total β-galactosidase activity, colorimetric assay ([3]; Arn8 cells, 12 and 24 hours after treatment): strong activity
- Max. β-Gal. Activtity Conc. ([3]; concentration inducing maximum of β-galactosidase activity (p53-responsive reporter)): 16 µM
- body weight of treated animals [4]: reducing body weight
- mean survival time [4]: 15.4 days
- survival analysis (Kaplan-Meier, log-rank) ([4]; P=0.0409 versus vehicle): significantly better survival
- phosphorylation of pRb at Ser780, Ser807 and Thr821 [5]: Reduced phosphorylation
- pIC50 [6]: 5.60
- inhibition of virus replication (in words) [7]: inhibited replication
- pIC50 [8]: 4.96

— patent publication US9023857B2, “Substituted 6-(2-aminobenzylamino)purine derivatives, their use as medicaments and preparations containing these compounds” (Univerzita Palackeho V Olomouci, priority 2009, dated 2015)
